According to patent US10697020B2, “MicroRNA-129 as a biomarker for colorectal cancer” (THE RESEARCH FOUNDATION FOR THE STATE UNIVERSITY OF NEW YORK, priority 2013, dated 2020):
Read-outs that look alike come from different tables or passages of the source.

Legend:
[1] = tested on: 84 genes involved in cell death pathways; experiment: Cell Death PathwayFinder PCR Array (real time qRT-PCR); format: cell-based, human; settings: miR-129 transfected vs negative miRNA transfected cells
From the text: RNAs were extracted from cells transfected with either precursor miR-129 or negative miRNA using TRIzol reagent (Invitrogen) in accordance with the manufacturer's protocol. RNAs were transcribed to first-strand cDNA using the RT^2 First Strand Kit (SABiosciences, Qiagen, Venlo, Netherlands). Next, the cDNA is mixed with RT^2 SYBR Green Mastermix (SABiosciences), and this mixture is aliquoted into the wells of the Cell Death PathwayFinder PCR Array (PAHS-212Z). Applied Biosytems 7500 Real-Time PCR machine was used for qRT-PCR, and relative expression values were determined using the ΔΔCT method.

3′-UTR of BCL2 mRNA = experiment: Luciferase assay, pMIR-REPORT-3′-UTR-BCL2 in HCT116 cells; format: cell-based, human; settings: 10 nM, 24 h, normalized to negative miRNA
Protocol: The predicted miR-129 binding sequence (wild-type, underlined) or a mismatch sequence (mutant, italic underlined) in the 3′UTR of Bcl2 mRNA were synthesized with SpeI and PmeI restriction site overhangs (Invitrogen). After annealing, double strand oligonucleotides were inserted into the pMIR-REPORT plasmid (Invitrogen), downstream of the firefly luciferase reporter. The sequences of these synthesized oligonucleotides are:
Twenty-four hours before transfection, 1.5×10^4 cells were plated in 96-well plate. 10 nM of miR-129 or negative miRNA was transfected into cells together with 100 ng of pMIR-REPORT-3′-UTR-BCL2 (wild-type or mutant) and 1 ng of Renilla luciferase plasmid pRL-SV40 (Promega, Madison, Wis., USA) by DharmaFect Duo (Dharmacon, Lafayette, Colo., USA) following the manufacturer's protocol. Luciferase assay was performed 24 hour after transfection by dual-luciferase reporter assay system (Promega). For each sample, firefly luciferase activity was normalized to Renilla luciferase activity and the inhibition by miR-129 was normalized to the control miRNA.

TS = experiment: Western immunoblot analysis of TS protein in HCT116 cells; format: cell-based, human; settings: HCT116 cells with ectopic expression of miR-129
Protocol: (§1) HCT116, RKO and SW480 cells were plated in 6-well plates at 2×10^5, 1×10^5 and 1×10^5 per well, respectively. Twenty-four hours after plating, 100 nM of miR-129 precursor (Ambion, Carlsbad, Calif., USA) or siRNA against BCL2 (Dharmacon, Lafayette, Colo., USA) were transfected to the cells with oligofectamine (Invitrogen, Carlsbad, Calif., USA) in accordance with the manufacturer's protocol. Negative miRNA (Ambion) was also transfected as a negative control.
(§2) Forty-eight hours after transfection, cells were lysed with RIPA buffer (Sigma-Aldrich), and Western immunoblotting was performed using standard procedures. The primary antibodies used for the analysis were mouse anti-human BCL2 antibody (1:200; Thermo Fisher Scientific, Fremont, Calif., USA), rabbit anti-human cleaved caspase-3 antibody (1:200; Cell Signaling Technology, Beverly, Mass., USA), rabbit anti-human cleaved caspase-9 antibody (1:200; Cell Signaling Technology), mouse anti-human E2F3 antibody (1:5000; Millipore, Billerica, Mass., USA), mouse anti-human TS antibody (1:400; Millipore), mouse anti-human GAPDH antibody (1:1000, Santa Cruz Biotechnology, Santa Cruz, Calif., USA) or mouse anti-human α-tubulin antibody (1:1000; Millipore). […] HRP activity was detected with SuperSignal West Pico Chemiluminescent Substrate (Thermo Fisher Scientific) and visualized in an UVP Bioimaging system.

[2] = tested on: cleaved caspase-3 and cleaved caspase-9; experiment: Western immunoblot analysis of cleaved caspases in HCT116 cells; format: cell-based, human; settings: HCT116 cells with ectopic expression of miR-129
Protocol: as §1, §2

HCT116 cells [3] = experiment: 5-FU treatment and cytotoxicity assay (WST-1); format: cell-based; settings: 72 hours, read-out: IC50 (50% growth inhibition, WST-1)
Protocol: Twenty-four hours after transfection, HCT116 cells were plated in 96-well plates at 2×10^3 cells per well in triplicates in 100 μl of medium. After 24 hours, fresh medium containing 5-FU alone (ranged from 1 to 4 μM) or miR-129 precursor alone (ranged from 10 nM to 40 nM) or 5-FU and miR-129 together (at a constant ratio 1:10, with increasing concentrations of both compounds) were added, and cells were cultured for an additional 72 hours. Cell viability was measured using the WST-1 assay, and concentration-dependent curves were generated based on the cell viability. The combination index was calculated by CompuSyn software. See, Chou T C et al. (2007).

E2F3 = experiment: Western immunoblot analysis of E2F3 protein in HCT116 cells; format: cell-based, human; settings: HCT116 cells after miR-129 transfection
Protocol: as §1, §2

HCT116 cells [4] = experiment: Cell proliferation assay (WST-1), HCT116; format: cell-based, human; settings: day 5
Protocol: as §1
(§3) Twenty-four hours after transfection, cells were seeded in 96-well plates at a density of 2000 cells per well. The cell proliferation assay was performed on days 1, 3 and 5 by incubating 10 μl WST-1 (Roche Applied Science, Mannheim, Germany) in the culture medium for 1 h and reading the absorbance at 450 and 630 nm. The cell proliferation rate was calculated by […]. Experiments for the cell proliferation assay were performed at least three times.

RKO cells = experiment: Cell cycle analysis (flow cytometry), RKO; format: cell-based, human; settings: 36 h after transfection
Protocol: as §1
Thirty-six hours after transfection, cells were harvested and resuspended at 0.5 to 1×10^6 cells/m in modified Krishan buffer supplemented with 0.02 mg/ml RNase H (Invitrogen) and 0.05 mg/ml propidium iodide (Sigma-Aldrich, St. Louis, Mo., USA) (See, Krishan A. The Journal of Cell Biology. 1975; 66(1):188-93). Stained cells were detected by flow cytometry and results were analyzed with Modfit LT™ software. The experiments for cell cycle analysis were performed at least three times.

SW480 cells = experiment: Cell proliferation assay (WST-1), SW480; format: cell-based, human; settings: day 5
Protocol: as §1, §3

**Q.** Which results are given for “miR-129: nucleic acid having a sequence of CUUUUUGCGGUCUGGGCUUGC (SEQ ID NO. 1); miR-129 precursor from Ambion used (chemistry not given here; listed as Homo sapiens)”?
**A.** Fold change (miR-129/neg) ([1]; gene APAF1): 2.44; Fold change (miR-129/neg) ([1]; gene BAX): 27.77; Fold change (miR-129/neg) ([1]; gene BCL2A1): 0.04; Fold change (miR-129/neg) ([1]; gene BIRC3): 0.28; Fold change (miR-129/neg) ([1]; gene CASP2): 7.68; Fold change (miR-129/neg) ([1]; gene CASP3): 1.27; Fold change (miR-129/neg) ([1]; gene CASP7): 4.75; Fold change (miR-129/neg) ([1]; gene CASP9): 2.53; Fold change (miR-129/neg) ([1]; gene MCL1): 3.81; Fold change (miR-129/neg) ([1]; gene PARP2): 0.47; firefly luciferase activity of pMIR-REPORT-3′-UTR-BCL2 (wild-type) (3′-UTR of BCL2 mRNA): significantly inhibited the luciferase activity; luciferase activity of reporter with 3′-UTR of BCL2 with three point mutations in the miR-129 binding site (mutant) (3′-UTR of BCL2 mRNA): did not inhibit the luciferase activity; TS protein expression (TS): suppressed the protein expression of TS; protein levels of cleaved caspase-9 and cleaved caspase-3 [2]: elevated the protein levels; IC50 (HCT116 cells [3]; miR-129 alone): 11.2 nM; IC50 (HCT116 cells [3]; miR-129 when combined with 5-FU (fixed ratio 1:10)): 6.3 nM; E2F3 protein levels (E2F3): reduce E2F3 protein levels; cell proliferation reduced compared to negative controls (HCT116 cells [4]): 41.2%; cell cycle arrest (G1/S and G2/S ratios) (RKO cells): at G1 checkpoint; cell proliferation reduced compared to negative controls (SW480 cells): 44.7%
